Measured values reported in PubChem BioAssay (NCI).
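Results reflect a 48-hour exposure of cells in 96-well plates to compound at five concentrations. TGI: total growth inhibition.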

Assays:
Assay in all cases: DTP human tumour cell line panel, 48 h
HL-60(TB) leukemia = system: HL-60(TB) leukemia
HOP-92 NSCLC = system: HOP-92 NSCLC
NCI-H23 lung = system: NCI-H23 lung
OVCAR-3 ovarian = system: OVCAR-3 ovarian
EKVX NSCLC = system: EKVX NSCLC
RXF 393 renal = system: RXF 393 renal
SN12C renal = system: SN12C renal
CCRF-CEM leukemia = system: CCRF-CEM leukemia
BT-549 breast = system: BT-549 breast
UACC-62 melanoma = system: UACC-62 melanoma
SF-268 CNS = system: SF-268 CNS
OVCAR-5 ovarian = system: OVCAR-5 ovarian
A498 renal = system: A498 renal
SK-OV-3 ovarian = system: SK-OV-3 ovarian
HOP-62 NSCLC = system: HOP-62 NSCLC
786-0 renal = system: 786-0 renal
MDA-MB-435 = system: MDA-MB-435
NCI-H226 lung = system: NCI-H226 lung

Compound | TGI (HL-60(TB) leukemia) [µM] | TGI (HOP-92 NSCLC) [µM] | TGI (NCI-H23 lung) [µM] | TGI (OVCAR-3 ovarian) [µM] | TGI (EKVX NSCLC) [µM] | TGI (RXF 393 renal) [µM] | TGI (SN12C renal) [µM] | TGI (CCRF-CEM leukemia) [µM] | TGI (BT-549 breast) [µM] | TGI (UACC-62 melanoma) [µM] | TGI (SF-268 CNS) [µM] | TGI (OVCAR-5 ovarian) [µM] | TGI (A498 renal) [µM] | TGI (SK-OV-3 ovarian) [µM] | TGI (HOP-62 NSCLC) [µM] | TGI (786-0 renal) [µM] | TGI (MDA-MB-435) [µM] | TGI (NCI-H226 lung) [µM]
Cc1ccc(C)c(NC(=O)C(Cc2c[nH]c3ccccc23)NC(=O)OCc2ccccc2)c1 (stereo not drawn) | 15.4 | 57.5 | 68.4 | > 100 | 49 | 22 | > 100 | 12.2 | 44.8 | 59.7 | > 100 | > 100 | > 100 | 50.1 | > 100 | 39.3 | > 100 | –
Cc1c2cccc-2c(OCCO)cc2c1[nH]c1ccccc12 | > 19.9 | > 28.7 | 12.3 | 3.75 | 5.18 | 5.37 | 11.8 | > 29.6 | 7.34 | 8.71 | – | 5.83 | > 31.6 | 14.4 | 14.5 | 7.14 | 15.8 | 21
COC1(C)C=NCC(C)(C)NC(=O)C(C)(OC)C=NCC(C)(C)NC1=O (stereo not drawn) | > 10 | > 10 | > 10 | – | > 10 | > 10 | > 10 | > 10 | > 10 | > 10 | > 10 | – | – | > 10 | > 10 | > 10 | > 10 | –
C[C@@H]1OC(=O)/C(=C\N(C)C)[C@H]2CC(=O)N(CCc3cn(S(=O)(=O)C(F)(F)F)c4ccccc34)C[C@H]12 | – | > 100 | > 100 | > 100 | > 100 | > 100 | > 100 | – | > 100 | – | > 100 | > 100 | > 100 | > 100 | > 100 | > 100 | > 100 | > 100
CCCCP(CCCC)(CCCC)=C(C(=O)OC)C(C(=O)OC)=C1SC(C(=O)OC)=C(C(=O)OC)S1 | – | – | 45.4 | 53.1 | 68.5 | 22.8 | 29.8 | – | 30.9 | 27.1 | > 100 | 52.5 | – | 75.8 | 49.3 | 40 | 28.1 | 45
C/C(=N\Nc1nc2ccccc2o1)c1ccncn1 | 0.0585 | 6.05 | > 47.7 | – | > 100 | – | > 100 | > 100 | > 100 | – | > 53.8 | > 100 | 10.7 | 17.4 | > 68.7 | 18.3 | > 75.8 | > 100
O=C1OC(c2ccccc2)N/C1=C\c1ccc2c(c1)OCO2 (stereo not drawn) | 0.684 | > 100 | > 100 | > 100 | > 100 | > 100 | > 100 | 99.6 | > 100 | > 100 | > 100 | > 100 | – | > 100 | > 100 | > 100 | > 100 | > 100
CC1(C)C2CCC1(CC(=O)O)C(Cl)C2 (stereo not drawn) | > 100 | – | > 100 | > 100 | > 100 | > 100 | > 100 | > 100 | > 100 | > 100 | > 100 | > 100 | > 100 | > 100 | > 100 | > 100 | > 100 | > 100
CC(=O)OCc1cn(S(=O)(=O)c2ccc(C)cc2)cn1 | > 100 | > 100 | > 100 | 85.9 | > 100 | > 100 | > 100 | > 100 | > 100 | > 100 | 97.5 | – | > 100 | > 100 | > 100 | > 100 | > 100 | > 100
CCCCCCCC/C=C/CCCCCCCC1CC(O)C(=O)O1 (stereo not drawn) | 88.3 | 90.9 | > 100 | 95.7 | > 100 | – | – | > 100 | > 100 | > 100 | > 100 | > 100 | > 100 | > 100 | > 100 | > 100 | > 100 | > 100
COc1cc(OC)nc(Nc2c(C#N)c3nc4ccccc4n3c3ccccc23)n1 | > 100 | – | > 100 | > 100 | > 100 | 99.2 | – | > 100 | 63 | > 100 | > 100 | > 100 | – | > 100 | 35 | 43.6 | > 100 | > 100
C=C(C(=O)O)[C@@H]1C[C@@H]2O[C@H]1CC(C)=CCC/C(C)=C/CC[C@@]2(C)O | > 100 | > 100 | – | > 100 | > 100 | > 100 | > 100 | > 100 | > 100 | > 100 | > 100 | > 100 | > 100 | – | – | > 100 | > 100 | > 100
Cc1nn(C)c2c1C(=O)N(C)CC(=O)N2C | > 100 | > 100 | > 100 | > 100 | > 100 | > 100 | > 100 | > 100 | > 100 | > 100 | > 100 | > 100 | > 100 | > 100 | > 100 | > 100 | > 100 | –
Cc1cc(-c2nc3cc(F)c(F)cc3s2)ccc1N | > 100 | > 100 | > 100 | > 100 | > 100 | > 100 | > 100 | > 100 | > 100 | > 100 | > 100 | > 100 | > 100 | > 100 | > 71.3 | > 100 | > 100 | –
